# Assay results as given in PubChem BioAssay AID179 (DTP/NCI, 2004).
# Activity calls are given as the source filed them.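 Rule for the calls: active = compounds giving half or more protection of infected cells from virus-caused growth loss, again on retest; inactive = the rest.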
# System: CEM cells HIV-1 protection, formazan growth assay
# Assay: NCI AIDS Antiviral Assay
# Conditions: for IC50: measured here: growth of uninfected CEM cells
# Procedure, shortened: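 Five concentrations of each compound were applied to infected and uninfected human CEM cells. Protection from HIV-1 was judged from growth measured with a soluble formazan assay.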
Structure (SMILES),EC50 [µM],IC50 [µM],outcome
COc1c(Br)cc2ccccc2c1-c1c(OC)c(Br)cc2ccccc12,17.4,> 100,–
Cn1c(=O)c2nncnc2n(C)c1=O,> 200,> 200,–
COC(=O)c1cc(C(=CCCO)c2cc(Br)c(OC)c(C(=O)OC)c2)cc(Br)c1OC,> 200,12.6,–
CCc1c(O)c2c([nH]c1=O)SC(C)(C)CC2=NCC(C)C,> 11.5,> 11.5,–
C#CCSc1nnnn1-c1ccccc1,> 200,3.24,–
O=C1/C(=C/c2ccc(Br)cc2)CCC/C1=C\c1ccc(Br)cc1,> 6.31,> 6.31,–
CN(C)C(=S)/N=c1\ss/c(=N\S(=O)(=O)c2ccccc2)n1N(C)C,–,–,inactive
O=[N+]([O-])C(Cl)C(Cl)C(Cl)=C(Cl)Cl (stereo unspecified),> 200,> 200,–
COC(=O)C1=C(C(=O)OC)C2(CCCCCC2=O)OC1=O (stereo unspecified),> 851,45.7,–
CC(C)C(=O)/C=C/c1ccc(Cl)c(Cl)c1,> 200,11,–
COc1cc(NCc2ccc3nc(OC)c(OC)nc3c2)cc(OC)c1OC,> 200,> 200,–
CSC12c3cc(C)n(-c4ccc([N+](=O)[O-])cc4)c3CC(C)(C)CN1C(=O)C2Oc1ccccc1 (stereo unspecified),> 200,49,–
O=C1N/C(=N\N=C\c2ccccc2)C2(CCCCC2)O1,> 200,97.7,–
COc1cc2c(cc1O)C(Cc1ccc(Oc3cc(C[C@H]4c5cc(OC)c(OC)cc5CCN4C)ccc3OC)cc1)N(C)CC2 (stereo partly specified),–,–,inactive
CC(C)c1ccc(/C=C(\NC(=O)c2ccccc2)c2nc3ccccc3[nH]2)cc1,> 49,> 49,–
Cc1ccc(S(=O)(=O)n2nc(Oc3ccc(Cl)c(Cl)c3)nc2N)cc1,> 3.63,> 3.63,–
Brc1ccc(CCNCCN2CCCCC2)cc1,> 102,29.5,–
N#Cc1cccc2c1Sc1ccccc1N2,> 200,12,–
S=C1NC2=C(CSC/C2=C\c2ccccc2)C(c2ccccc2)N1 (stereo unspecified),> 200,37.2,–
O=C1CC(c2ccco2)C2(C(=O)CCCC2=O)C(c2ccco2)C1 (stereo unspecified),> 100,> 100,–
Cc1cccc2c(=O)c([Se]c3coc4c(C)cccc4c3=O)coc12,> 33.1,> 33.1,–
COC(=O)Cc1c([C@H]2[C@H](CC(=O)OC)c3ccccc3N2C(=O)C(F)(F)F)[nH]c2ccccc12,> 200,27.5,–

Structure (SMILES),EC50 [µM],IC50 [µM],outcome
COC(=O)c1ccc(C)cc1CC1Cc2ccc(C)cc2C1=O (stereo unspecified),> 200,4.79,–
OC[C@H]1NC[C@@H](O)[C@@H](O)[C@H]1O,–,–,inactive
Cc1cc(Cl)ccc1NC(=O)C1C(=O)N(c2ccc(Cl)cc2C)C(=O)/C1=N\N (stereo unspecified),–,–,inactive
CCCCCCCCCC1OC(CCCCCCCCC)OC(CCCCCCCCC)O1 (stereo unspecified),> 200,> 200,–
COc1ccc(C[C@H]2COC(=O)[C@@H]2Cc2ccc3c(c2)OCO3)cc1OC,> 200,19.1,–
Cc1ccc(NCC2(/N=C/c3ccccc3)OC(CO)C(O)C2O)cc1 (stereo unspecified),> 263,6.61,–
NC(=S)N/N=C/C(F)(F)F,> 1450,79.4,–
COc1cc2noc(-c3ccccc3)c2cc1OC,–,–,inactive
O=S(=O)(O)c1cc(S(=O)(=O)O)c2c(N=Nc3ccc(N=Nc4ccccc4)cc3)c(O)ccc2c1,> 100,> 100,–
CCC/C(=N\NC(=S)N1CC2CCC(CC2)C1)c1ccccn1,> 6.76,0.148,–
COc1ccc(Oc2c(OC)cc(NCc3ccc(CN)cc3)c3ncccc23)cc1,> 200,27.5,–
CC(=O)/C(=C/N1CCNC1=S)C(=O)Nc1ccc([N+](=O)[O-])cc1,> 200,43.7,–
CC(c1ccccc1)n1c2ccccc2c2c(N)ncnc21 (stereo unspecified),> 200,17.8,–
CCNCCCCNCCCCNCCCCNCCCCNCC,> 2190,12.3,–
COC(=O)C1CC2CC1C1C2SC(F)(F)C1(F)F (stereo unspecified),> 200,> 200,–
COc1ccc(CC2COC(=O)[C@@H]2Cc2ccccc2)cc1OC (stereo partly specified),> 200,75.9,–
C[Si](C)(OCCS(=O)(=O)O)C1(Cc2cccc3ccccc23)S(=O)(=O)OCCOS1(=O)=O,> 200,107,–
Cc1cc(C2(O)C=C(C(C)(C)C)C(=O)C(C(C)(C)C)=C2)c(C)cc1C1(O)C=C(C(C)(C)C)C(=O)C(C(C)(C)C)=C1,> 151,> 151,–
COc1ccc2c(=O)c(O)c(-c3ccc(OC)c(OC)c3)oc2c1,> 200,> 200,–
N#CNC1=NCCC(=O)N1CCc1c[nH]c2ccccc12,70.8,> 200,–
O=C1CSC(c2ccccc2)N1c1ccc(-c2ccc(-n3c(-c4ccccc4)nc4ccccc4c3=O)cc2)cc1 (stereo unspecified),> 200,44.7,–
Cc1cnc2c(ccc3c(C)c(C)cnc32)c1C.Cc1cnc2c(ccc3c(C)c(C)cnc32)c1C.O=C1OC(C(O)C[O-])C(O)=C1O.[Cu+],> 25.1,0.912,–

Structure (SMILES),EC50 [µM],IC50 [µM],outcome
Cc1c(NC(=O)CSC(=S)N2CCN(Cc3ccccc3)CC2)c(=O)n(-c2ccccc2)n1C,–,–,inactive
CSc1ccc2nncc(SC)c2c1,> 158,57.5,–
COC(C[C@H]1CCCC[C@]1(O)/C(=C\CO[Si](C(C)C)(C(C)C)C(C)C)Sc1ccccc1)OC,> 200,72.4,–
COc1cc(/C=c2\sc3n(c2=O)C(c2ccc(Cl)cc2)C2=C(CCCC2C)N=3)cc(OC)c1OC (stereo unspecified),> 200,> 200,–
N#Cc1c(N)oc(-c2ccc([N+](=O)[O-])cc2)c1C#N,> 200,67.6,–
O=C1c2ccccc2Sc2ccccc2N1C(=O)C1CC1,39.8,55,–
Brc1ccc(-c2cc(-c3ccc4c(c3)OCO4)c(-c3cccs3)n2Cc2ccccc2)cc1,> 200,> 200,–
CCCCCCCCCC(=O)NC(Cc1ccc(O)cc1)C(=O)NCCCNCCCCNCCCNC(=O)[C@@H](N)CCCN=C(N)N (stereo partly specified),> 69.2,58.9,–
O=c1nc2sc3ccc4ccccc4c3n2[nH]c1=O,> 47.9,> 47.9,–
Clc1ccc(CSc2nnc(SCc3ccc(Cl)c(Cl)c3)c3[nH]cnc23)cc1Cl,> 200,12.6,–
COC(=O)[C@@H]1[C@H]2C[C@@H]3c4[nH]c5ccccc5c4CCN3C[C@@H]2CC[C@@H]1O,–,–,inactive
CN1C(=O)Nc2ncn(C)c2S1(=O)=O,> 603,> 603,–
O=C1/C(=C/c2ccc(Cl)cc2)CSC/C1=C\c1ccc(Cl)cc1,> 200,2.63,–
COC(=O)C(C(=O)C(=O)Nc1cccc([N+](=O)[O-])c1)c1nc2ccc([N+](=O)[O-])cc2[nH]c1=O (stereo unspecified),> 550,309,–
Cc1ccccc1NC(=O)/C(=N/NC(=O)CC#N)C1C(=O)N(c2ccccc2)N=C1N (stereo unspecified),> 12.6,> 12.6,–
NC(=O)CCCNC(=O)c1ccccc1SC(=O)CCCC[n+]1ccccc1,0.646,16.2,–
Nc1nc2n[nH]nc2c(=O)[nH]1,> 89.1,0.302,–
O=C(Oc1ccccc1)c1cccc(C(=O)Oc2ccccc2)c1,> 16.2,> 16.2,–
OCC1NCC(O)C(O)C1O (stereo unspecified),> 200,> 200,–
CC(O)[C@@]1(c2ccccc2)CC2(CCN(C)CC2)O[C@H]1C (stereo partly specified),> 200,> 200,–
